According to US20090028925A1, “Novel Phosphinic Acid-Containing Thyromimetics” (priority 2005, published 2009):
Like-named read-outs stand apart in the source and are kept apart here.

Tests used:
[1] = target: T1, human thyroid hormone receptors TRα1 (Homo sapiens, UniProt P10827); experiment: Receptor binding to TRα1 (gel filtration and scintillation proximity assay, labeled T3); settings: read-out: Ki TRα
T1 construct: made in house; host or cells: Sf9 insect cells (baculovirus)
T1 sequence (P10827 1-410 isoform P10827-2): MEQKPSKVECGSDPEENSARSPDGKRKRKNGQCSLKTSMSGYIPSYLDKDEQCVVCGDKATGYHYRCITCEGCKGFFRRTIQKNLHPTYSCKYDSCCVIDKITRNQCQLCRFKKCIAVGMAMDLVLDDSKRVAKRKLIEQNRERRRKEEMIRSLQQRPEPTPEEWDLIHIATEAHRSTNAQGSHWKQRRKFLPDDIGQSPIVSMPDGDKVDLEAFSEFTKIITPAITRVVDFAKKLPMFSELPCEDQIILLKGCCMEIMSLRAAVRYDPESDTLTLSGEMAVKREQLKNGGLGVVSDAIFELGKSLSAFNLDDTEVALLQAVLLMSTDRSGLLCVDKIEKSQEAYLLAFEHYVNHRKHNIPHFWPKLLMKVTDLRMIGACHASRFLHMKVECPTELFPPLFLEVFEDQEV
T1 sequence (P19793 1-462 partner): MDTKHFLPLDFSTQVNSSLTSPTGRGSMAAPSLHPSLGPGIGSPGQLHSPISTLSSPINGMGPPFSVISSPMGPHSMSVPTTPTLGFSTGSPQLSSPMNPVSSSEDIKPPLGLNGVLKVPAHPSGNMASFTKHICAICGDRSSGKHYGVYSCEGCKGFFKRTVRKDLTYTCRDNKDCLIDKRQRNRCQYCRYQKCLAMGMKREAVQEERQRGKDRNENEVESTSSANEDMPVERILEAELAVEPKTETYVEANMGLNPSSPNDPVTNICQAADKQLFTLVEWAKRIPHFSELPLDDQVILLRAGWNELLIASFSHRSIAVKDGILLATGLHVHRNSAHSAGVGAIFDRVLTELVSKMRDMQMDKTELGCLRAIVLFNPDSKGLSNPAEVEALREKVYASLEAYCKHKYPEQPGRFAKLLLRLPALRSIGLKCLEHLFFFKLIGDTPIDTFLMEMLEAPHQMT
Protocol: (§1) Methods: Baculoviruses expressing TRα1, TRβ1 and RXRα were generated using cDNA and other reagents from Invitrogen (Carlsbad, Calif.). To produce TR/RXR heterodimer proteins, the sf9 insect cells were first grown to a density of 1-5×10^5 cells/mL. […] and RXRα baculovirus stocks were added to the cell culture with a ratio of 1 to 1 (multiplicity of infection=10). The cells were harvested three days after the infection.
(§2) Binding of compounds to either the TRα1 or TRβ1 were also performed by means of scintillation proximity assays (SPA). The SPA assay, a common method used for the quantitation of receptor-ligand equilibria, makes use of special beads coated with a scintillant and a capture molecule, copper, which binds to the histidine-tagged α or β receptor.

[2] = target: T2, human thyroid hormone receptors TRβ1 (Homo sapiens, UniProt P10828); experiment: Receptor binding to TRβ1 (gel filtration and scintillation proximity assay, labeled T3); settings: read-out: Ki TRβ
T2 construct: made in house; host or cells: Sf9 insect cells (baculovirus)
T2 sequence (P10828 1-461): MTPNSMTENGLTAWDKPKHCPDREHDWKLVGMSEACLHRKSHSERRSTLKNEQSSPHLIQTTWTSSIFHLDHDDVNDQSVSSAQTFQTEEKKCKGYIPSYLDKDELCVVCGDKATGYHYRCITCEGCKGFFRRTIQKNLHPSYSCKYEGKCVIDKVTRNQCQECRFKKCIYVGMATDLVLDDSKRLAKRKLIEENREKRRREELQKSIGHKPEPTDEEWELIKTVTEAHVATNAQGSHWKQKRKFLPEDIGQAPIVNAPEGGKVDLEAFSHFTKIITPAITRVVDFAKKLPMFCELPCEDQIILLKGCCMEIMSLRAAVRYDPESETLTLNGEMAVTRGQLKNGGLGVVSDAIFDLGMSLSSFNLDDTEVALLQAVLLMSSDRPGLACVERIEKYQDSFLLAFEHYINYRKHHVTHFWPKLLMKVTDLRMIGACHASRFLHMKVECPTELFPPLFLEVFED
T2 sequence (P19793 1-462 partner): T1 sequence (P19793 1-462 partner)
Protocol: as §1, §2

| SMILES | Ki ([1]; SPA data) | Ki ([2]; SPA data) | Ki [1] | Ki [2] |
| --- | --- | --- | --- | --- |
| O=P(O)(O)Cc1cc(Cl)c(Oc2ccc(O)c(S(=O)(=O)N[C@@H]3C[C@H]4CC[C@@H]3C4)c2)c(Cl)c1 (relative stereo) [Compound 10, 3,5-dichloro-4-[4′-hydroxy-3′-(N-exo-2-norbornylsulfonamido)phenoxy]benzylphosphonic acid] | > 2000 nM | > 2000 nM | – | – |
| Cc1cc(NC(=O)P(=O)(O)O)cc(C)c1Oc1ccc(O)c(C(C)C)c1 [Compound 1, N-[3,5-dimethyl-4-(3′-iso-propyl-4′-hydroxyphenoxy)]carbamoylphosphonic acid] | – | – | 285 nM | 36.1 nM |
| NC(Cc1cc(I)c(Oc2ccc(O)c(I)c2)c(I)c1)P(=O)(O)O (stereo not drawn) [Compound 2, 1-amino-2-[3,5-diiodo-4-(4′-hydroxy-3′-iodophenoxy)phenyl]ethylphosphonic acid] | – | – | 1420 nM | 271 nM |
| O=P(O)(O)CCc1cc(I)c(Oc2ccc(O)c(I)c2)c(I)c1 [Compound 3, 2-[3,5-diiodo-4-(4′-hydroxy-3′-iodophenoxy)phenyl]ethylphosphonic acid] | 46 nM | 5.42 nM | – | – |
| CC(C)c1cc(Oc2c(I)cc(CCP(=O)(O)O)cc2I)ccc1O [Compound 4, 2-[3,5-diiodo-4-(4′-hydroxy-3′-iso-propylphenoxy)phenyl]ethylphosphonic acid] | 14.1 nM | 0.99 nM | – | – |
| CC(C)c1cc(Oc2c(I)cc(CP(=O)(O)O)cc2I)ccc1O [Compound 5, 3,5-diiodo-4-(4′-hydroxy-3′-iso-propylphenoxy)benzylphosphonic acid] | – | – | 1.84 nM | 0.84 nM |
| O=P(O)(O)Cc1cc(Cl)c(Oc2ccc(O)c(S(=O)(=O)N3CCCCC3)c2)c(Cl)c1 [Compound 9, 3,5-dichloro-4-[4′-hydroxy-3′-(N-piperidinylsulfonamido)phenoxy]benzylphosphonic acid] | 350 nM | 204 nM | – | – |
| Cc1cc(OC[P@]2(=O)OCC[C@@H](c3cccc(Cl)c3)O2)cc(C)c1Cc1ccc(O)c(C(C)C)c1 [Compound 13-1-trans, (S)-2-[(3,5-dimethyl-4-(4′-hydroxy-3′-iso-propylbenzyl)phenoxy)methyl]-4-(3-chlorophenyl)-2-oxo-2λ^5-[1,3,2]-dioxaphosphonane] | 1740 nM | 1320 nM | – | – |
| Cc1cc(OC[P@]2(=O)OCC[C@@H](c3cccc(Br)c3)O2)cc(C)c1Cc1ccc(O)c(C(C)C)c1 [Compound 13-2-trans, 2-[(3,5-dimethyl-4-(4′-hydroxy-3′-iso-propylbenzyl)phenoxy)methyl]-4-(3-bromophenyl)-2-oxo-2λ^5-[1,3,2]-diox aphosphonane] | 1350 nM | 469 nM | – | – |
| Cc1cc(OC[P@]2(=O)OCC[C@@H](c3cccc(F)c3)O2)cc(C)c1Cc1ccc(O)c(C(C)C)c1 [Compound 13-3-trans] | 2010 nM | 2460 nM | – | – |
| Cc1cc(OC[P@]2(=O)OCC[C@@H](c3cccnc3)O2)cc(C)c1Cc1ccc(O)c(C(C)C)c1 [Compound 13-4-trans, 2-[(3,5-dimethyl-4-(4′-hydroxy-3′-iso-propylbenzyl)phenoxy)methyl]-4-(pyrid-3-yl)-2-oxo-2λ^5-[1,3,2]-dioxaphosphonane] | 2130 nM | 1810 nM | – | – |
| Cc1cc(OC[P@]2(=O)OCC[C@@H](c3ccncc3)O2)cc(C)c1Cc1ccc(O)c(C(C)C)c1 [Compound 13-5-trans, 2-[(3,5-dimethyl-4-(4′-hydroxy-3′-iso-propylbenzyl)phenoxy)methyl]-4-(pyrid-4-yl)-2-oxo-2λ^5-[1,3,2]-dioxaphosphonane] | 354 nM | 281 nM | – | – |
| Cc1cc(OC[P@]2(=O)OCC[C@@H](c3ccc(Cl)cc3)O2)cc(C)c1Cc1ccc(O)c(C(C)C)c1 [Compound 13-6-trans, 2-[(3,5-dimethyl-4-(4′-hydroxy-3′-iso-propylbenzyl)phenoxy)methyl]-4-(4-chlorophenyl)-2-oxo-2λ^5-[1,3,2]-dioxaphosphonane] | 1530 nM | 1570 nM | – | – |
| Cc1cc(OC[P@@]2(=O)OCC[C@@H](c3cc(Cl)cc(Cl)c3)O2)cc(C)c1Cc1ccc(O)c(C(C)C)c1 [Compound 13-7-cis] | 49600 nM | 45100 nM | – | – |
| Cc1cc(OC[P@]2(=O)OCC[C@@H](c3cc(Cl)cc(Cl)c3)O2)cc(C)c1Cc1ccc(O)c(C(C)C)c1 [Compound 13-7-trans] | 1550 nM | 3800 nM | – | – |
| Cc1cc(OCP(=O)(O)O)cc(C)c1Nc1ccc(O)c(C(C)C)c1 [Compound 20, [3,5-dimethyl-4-N-(4′-hydroxy-3-iso-propylphenylamino)phenoxy]methylphosphonic acid] | > 2000 nM | > 2000 nM | – | – |
| CC(C)c1cc(Oc2c(Cl)cc(C(=O)CP(=O)(O)O)cc2Cl)ccc1O [Compound 21, 2-[3,5-dichloro-4-(4′-hydroxy-3′-iso-propylphenoxy)phenyl]-2-oxoethylphosphonic acid] | > 1400 nM | > 180 nM | – | – |
| Cc1cc(C(=O)NCP(=O)(O)O)cc(C)c1Oc1ccc(O)c(C(C)C)c1 [Compound 23, N-[3,5-dimethyl-4-(4′-hydroxy-3′-iso-propylphenoxy)benzamido]methyl phosphonic acid] | > 2000 nM | > 2000 nM | – | – |
| COc1cc(CCP(=O)(O)O)cc(OC)c1Cc1ccc(O)c(C(C)C)c1 [Compound 24, 2-[3,5-dimethoxy-4-(4′-hydroxy-3′-isopropylbenzyl)phenyl]ethylphosphonic acid] | > 2000 nM | > 2000 nM | – | – |

Now from value to molecule, other results behind:

| Ki ([1]; SPA data) | Ki ([2]; SPA data) | SMILES | Ki [1] | Ki [2] |
| --- | --- | --- | --- | --- |
| > 2000 nM | – | COc1cc(OCP(=O)(O)O)cc(OC)c1Cc1ccc(O)c(C(C)C)c1 [Compound 7-2, [3,5-dimethoxy-4-(4′-hydroxy-3′-iso-propylbenzyl)phenoxy]methylphosphonic acid] | – | 146 nM |
| > 2000 nM | > 2000 nM | COc1ccc(Cc2c(C)cc(OCP(=O)(O)O)cc2C)cc1C(C)C [Compound 7-4, [3,5-dimethyl-4-(3′-iso-propyl-4′-methoxybenzyl)phenoxy]methylphosphonic acid] | – | – |
| 67 nM | 9.5 nM | CC(C)c1cc(Cc2c(Cl)cc(OCP(=O)(O)O)cc2Cl)ccc1O [Compound 7-5, [3,5-dichloro-4-(4′-hydroxy-3′-iso-propylbenzyl)phenoxy]methylphosphonic acid] | – | – |
| 898 nM | 90 nM | Cc1cc(Cc2c(C)cc(OCP(=O)(O)O)cc2C)ccc1O [Compound 7-7, [3,5-dimethyl-4-[4′-hydroxy-3′-methylbenzyl]phenoxy]methylphosphonic acid] | – | – |
| > 2000 nM | 61 nM | CC(=O)Nc1ccc(Cc2c(C)cc(OCP(=O)(O)O)cc2C)cc1C(C)C [Compound 7-12, [4-(4′-acetylamino-3′-iso-propylbenzyl)-3,5-dimethylphenoxy]methylphosphonic acid] | – | – |
| > 2000 nM | > 2000 nM | CCOC(=O)[C@@H](NP(=O)(COc1cc(C)c(Cc2ccc(O)c(C(C)C)c2)c(C)c1)N[C@H](C(=O)OCC)C(C)C)C(C)C [Compound 15-3, di-N-(1-ethoxycarbonyl-2-methyl-propylamino)[3,5-dimethyl-4-(3′-iso-propyl-4′-hydroxybenzyl)phenoxy]methylphosphonamide] | – | – |
| – | 128 nM | Cc1cc(CP(=O)(O)O)cc(C)c1Oc1ccc(O)c(C(C)C)c1 [Compound 19-3, [3,5-dimethyl-4-(4′-hydroxy-3′-iso-propylphenoxy)]benzylphosphonic acid] | 1760 nM | – |
| > 2000 nM | 92 nM | CCc1cc(Cc2c(C)cc(CCP(=O)(O)O)cc2C)ccc1O [Compound 24-4, 2-[3,5-dimethyl-4-(3′-Ethyl-4′-hydroxy-benzyl)phenyl]ethylphosphonic acid] | – | – |
